Structures can show the parent of a compound that is named as a salt.

By melting point is commonly meant the temperature, or range, at which the solid turns liquid.

As for `Nc1cccc(-c2ccc(OC3CN(Cc4cccnc4)C3)c3ccccc23)n1` (as salt: hydrochloride) [Example 72, 6-[4-(1-Pyridin-3-ylmethyl-azetidin-3-yloxy)-naphthalen-1-yl]-pyridin-2-ylamine], the melting point is 150 to 180 °C.

`Nc1cccc(-c2ccc(OCC3CNC3)c3ccccc23)n1` (as salt: hydrochloride) [Example 73, 6-[4-(Azetidin-3-ylmethoxy)-naphthalen-1-yl]-pyridin-2-ylamine] gave a melting point of 88 to 110 °C.

Take `Nc1cccc(-c2ccc(OC3CN(Cc4ccccn4)C3)c3ccccc23)n1` (as salt: hydrochloride) [Example 74, 6-[4-(1-Pyridin-2-ylmethyl-azetidin-3-yloxy)-naphthalen-1-yl]-pyridin-2-ylamine]: the melting point lay in the range of 97 to 120 °C.

`CN1CC(Oc2ccc(-c3cccc(N)n3)c3ccccc23)C1` (as salt: hydrochloride) [Example 75, 6-[4-(N-methyl-azetidin-3-yloxy)-naphthalen-1-yl]-pyridin-2-ylamine] showed a melting point of 240 to 255 °C.

Regarding `CC(C)N1CC(Oc2ccc(-c3cccc(N)n3)c3ccccc23)C1` (as salt: hydrochloride) [Example 76, 6-[4-(N-Isopropyl-azetidin-3-yloxy)-naphthalen-1-yl]-pyridin-2-ylamine], the melting point was 120 to 135 °C.

For the compound `Nc1cccc(-c2ccc(OCC3CCN3)c3ccccc23)n1` (stereo not shown) (as salt: salt) [Example 71, 6-[4-(Azetidin-2-ylmethoxy)-naphthalen-1-yl]-pyridin-2-ylamine], the melting point lay within 135 to 150 °C.

The compound `COc1cc2c(cc1OC)CN(CCc1ccc(-c3cccc(N)n3)c3ccccc13)CC2` [Example 4, 6-{4-[2-(6,7-Dimethoxy-3,4-dihydro-1H-isoquinolin-2-yl)-ethyl]-naphthalen-1-yl}-pyridin-2-ylamine] yielded a melting point of 172 to 176 °C.

(Values after US7012078B2, “2-aminopyridines containing fused ring substituents” (Pfizer Inc., priority 1997, dated 2006).)
